We go through 5 compounds from publication PMC7284125, “Identification of annotated bioactive molecules that impair motility of the blood fluke Schistosoma mansoni” (International Journal for Parasitology: Drugs and Drug …, 2020).

One data set relates to S. mansoni adult worms. As to the kind of experiment: Motility assay on adult parasites (pixel displacement, relative to DMSO control). It counts as cell-based, Schistosoma mansoni. As to conditions: adult male and female parasites, 10 μM, long-term. As for the experimental part:
Adult parasites were collected from 40 day-old female CD1 mice (Charles River) previously inoculated by the tail infection method ([Lewis, 2001]). Six weeks post-infection, mice were sacrificed, and adult worms extracted after perfusion of in the hepatic portal vein and mesenteric venules ([Lewis, 2001]). Animal procedures were reviewed and approved by the Facility Animal Care Committee of McGill University (Protocol No. 3346) and were conducted in accordance with the guidelines of the Canadian Council on Animal Care.
(§1) Schistosomulae (200/well) and adult parasites (unpaired worms) were maintained in 300 μL OPTI-MEM with 5% dialyzed FBS (without antibiotics) and exposed to compounds at 1 and 10 μM for 24 h. A kinetic assay consisting of 1, 3, 6 and 12 h incubation times was performed on selected hits by motility monitoring using a stereo microscope (SMZ1270, Nikon) for adults and an inverted microscope for schistosomulae (eclipse TE2000-U, Nikon) connected to a monochrome camera (DS-Qi2, Nikon) for image acquisition. Images were recorded at a rate of 10 frames/s for a period of 1 min and videos were analyzed using ImageJ software (version 1.41, NIH, USA). Parasite movement quantification and data analysis protocols were applied using the pixel displacement method ([Patocka et al., 2014]; [Rashid et al., 2015]) and compared to control parasites treated with DMSO. Parasites were then washed several times in Opti-MEM, 5% FBS and incubated up to an additional three days (schistosomulae) or five days (adult worms) at 37 °C, 5% CO2 and motility was recorded as described above.
Take `N#CSc1cc(SC#N)c(N)nc1N` [PR-619]: the hypomotility was 94.5%.

The same data set, now with this note: adults, 10 μM, long-term after washout.
Regarding `CC(=O)c1cc([N+](=O)[O-])c(Sc2ccc(F)cc2F)s1` [P22077], the “motility phenotype in words” value was “severely paralyzed adults”.
The same measure, in the same setting: the value for `N#CSc1cc(SC#N)c(N)nc1N` [PR-619] was “severely paralyzed adults”.
The same measure, in the same setting: the value for HO-3867 was “Significant hypomotility”; that for `c1ccc(CNc2nc(NCc3ccccc3)c3ccccc3n2)cc1` [DBeQ] was “severely paralyzed adults”.
On the same count and under the same terms, the value for `COc1cc(N2CCC(N)CC2)ccc1Nc1ncc(Cl)c(-c2c[nH]c3ccccc23)n1` [AZD3463] was “Significant hypomotility”.

Still in this data set, the particulars now being: secondary screen, 10 μM, D1, Female adult worms.
Regarding `CC(=O)c1cc([N+](=O)[O-])c(Sc2ccc(F)cc2F)s1` [P22077], the Fractional motility is listed as -0.33.
On the same count and under the same terms, then `N#CSc1cc(SC#N)c(N)nc1N` [PR-619], with 0.35; and HO-3867, with 0.32.
The same measure, in the same setting: the value for `c1ccc(CNc2nc(NCc3ccccc3)c3ccccc3n2)cc1` [DBeQ] was 0.29.
The same measure, in the same setting: then `COc1cc(N2CCC(N)CC2)ccc1Nc1ncc(Cl)c(-c2c[nH]c3ccccc23)n1` [AZD3463], with -0.12.

Staying with this data set, now noted: secondary screen, 10 μM, D1, Male adult worms.
For `CC(=O)c1cc([N+](=O)[O-])c(Sc2ccc(F)cc2F)s1` [P22077], the Fractional motility is -0.12.
On the same count and under the same terms, then `N#CSc1cc(SC#N)c(N)nc1N` [PR-619], with 0.35.
Same read-out and setting: then HO-3867, with 0.13; and `c1ccc(CNc2nc(NCc3ccccc3)c3ccccc3n2)cc1` [DBeQ], with 0.29; and `COc1cc(N2CCC(N)CC2)ccc1Nc1ncc(Cl)c(-c2c[nH]c3ccccc23)n1` [AZD3463], with 0.58.

Staying with this data set, now noted: secondary screen, 10 μM, D5, Female adult worms.
Regarding `CC(=O)c1cc([N+](=O)[O-])c(Sc2ccc(F)cc2F)s1` [P22077], the Fractional motility was -0.88.
Still for that read-out and setting: the value for `N#CSc1cc(SC#N)c(N)nc1N` [PR-619] was -0.88.
Take HO-3867: the Fractional motility is listed as -0.89.
Still for that read-out and setting: the value for `c1ccc(CNc2nc(NCc3ccccc3)c3ccccc3n2)cc1` [DBeQ] was -0.91; that for `COc1cc(N2CCC(N)CC2)ccc1Nc1ncc(Cl)c(-c2c[nH]c3ccccc23)n1` [AZD3463] was -0.93.

Still in this data set, the particulars now being: secondary screen, 10 μM, D5, Male adult worms.
In the case of `CC(=O)c1cc([N+](=O)[O-])c(Sc2ccc(F)cc2F)s1` [P22077], the Fractional motility was -0.79.
On the same count and under the same terms, then `N#CSc1cc(SC#N)c(N)nc1N` [PR-619], with -0.93; and HO-3867, with -0.84; and `c1ccc(CNc2nc(NCc3ccccc3)c3ccccc3n2)cc1` [DBeQ], with -0.65.
Still for that read-out and setting: the value for `COc1cc(N2CCC(N)CC2)ccc1Nc1ncc(Cl)c(-c2c[nH]c3ccccc23)n1` [AZD3463] was -0.57.

The next data set deals with S. mansoni schistosomulae. As to the kind of experiment: Phenotypic primary screen assay on schistosomulae (phenotype; viability by methylene blue dye exclusion). The format is cell-based, Schistosoma mansoni. Particulars: three-day-old schistosomulae, 10 μM, 24 h; calculated 5 days post compound exposure. As for the experimental part: Puerto Rican strain Biomphalaria glabrata snails infected with S. mansoni were kindly provided by Dr. Fred Lewis (Biomedical Research Institute and BEI Resources, MD, USA). Schistosomulae were obtained by exposing six to eight weeks-old snails to continuous light for 2 h at 32 °C. […] At this point, animals with internal dark granulations and with no observable body contraction/relaxation cycles were considered dead.
Schistosomulae were monitored under a stereo microscope (SMZ1270, Nikon). Phenotypic observations were made by analyzing schistosomulae, 24 h after drug addition to assess any immediate effect and five days post-compound exposure to observe long-term impacts on both the movement and overall body shape in comparison to control animals exposed to DMSO only.
As to `CC(=O)c1cc([N+](=O)[O-])c(Sc2ccc(F)cc2F)s1` [P22077], the “Viability (%)” value was 5%.
Same read-out and setting: the value for `N#CSc1cc(SC#N)c(N)nc1N` [PR-619] was 54,5%; that for HO-3867 was 42,5%.
On the same count and under the same terms, then `c1ccc(CNc2nc(NCc3ccccc3)c3ccccc3n2)cc1` [DBeQ], with 15,5%; and `COc1cc(N2CCC(N)CC2)ccc1Nc1ncc(Cl)c(-c2c[nH]c3ccccc23)n1` [AZD3463], with 42,5%.

Staying with this data set, now noted: three-day-old schistosomulae, 10 μM, 24 h; estimated 5 days post compound exposure.
On to `CC(=O)c1cc([N+](=O)[O-])c(Sc2ccc(F)cc2F)s1` [P22077], for which the Phenotype entry is recorded as “dark, granulated”.
On the same count and under the same terms, the value for `N#CSc1cc(SC#N)c(N)nc1N` [PR-619] was “dark, granulated”; that for HO-3867 was “dark, granulated”.
`c1ccc(CNc2nc(NCc3ccccc3)c3ccccc3n2)cc1` [DBeQ]: the Phenotype entry is reported as “dark, granulated”.
Regarding `COc1cc(N2CCC(N)CC2)ccc1Nc1ncc(Cl)c(-c2c[nH]c3ccccc23)n1` [AZD3463], the Phenotype result is “dark, granulated”.

The subject of a further data set is S. mansoni schistosomulae. Nature of the data set: Motility assay on schistosomulae (pixel displacement, relative to DMSO control). The format is cell-based, Schistosoma mansoni. Particulars: schistosomulae, 1h exposure, read at D1, 10 µM. As for the experimental part:
Puerto Rican strain Biomphalaria glabrata snails infected with S. mansoni were kindly provided by Dr. Fred Lewis (Biomedical Research Institute and BEI Resources, MD, USA). Schistosomulae were obtained by exposing six to eight weeks-old snails to continuous light for 2 h at 32 °C. The resulting suspension of cercaria was then mechanically transformed as described ([Lewis, 2001]) and cultured in Opti-MEM/antibiotics (Thermo Fisher Scientific, Waltham, MA) containing 100 μg/mL streptomycin and 100 units/ml penicillin supplemented with 5% fetal bovine serum (FBS; Thermo Fisher). Parasite cultures were incubated at 37 °C with 5% CO2 for at least 10 days with no apparent loss of viability. At this point, animals with internal dark granulations and with no observable body contraction/relaxation cycles were considered dead.
as §1
`CC(=O)c1cc([N+](=O)[O-])c(Sc2ccc(F)cc2F)s1` [P22077]: the Fractional motility is given as 0.71.
For the compound HO-3867, the Fractional motility was determined as 1.63.
On to `c1ccc(CNc2nc(NCc3ccccc3)c3ccccc3n2)cc1` [DBeQ], for which the Fractional motility is -0.96.
Same read-out and setting: then `COc1cc(N2CCC(N)CC2)ccc1Nc1ncc(Cl)c(-c2c[nH]c3ccccc23)n1` [AZD3463], with 1.70.

Staying with this data set, now noted: schistosomulae, 1h exposure, read at D5, 10 µM.
`CC(=O)c1cc([N+](=O)[O-])c(Sc2ccc(F)cc2F)s1` [P22077] had a Fractional motility of 0.10.
On the same count and under the same terms, then HO-3867, with -0.56; and `c1ccc(CNc2nc(NCc3ccccc3)c3ccccc3n2)cc1` [DBeQ], with -0.93.
Still for that read-out and setting: the value for `COc1cc(N2CCC(N)CC2)ccc1Nc1ncc(Cl)c(-c2c[nH]c3ccccc23)n1` [AZD3463] was -0.84.

The data set is the same for the next values; noted with them: schistosomulae, 3h exposure, read at D1, 10 µM.
`CC(=O)c1cc([N+](=O)[O-])c(Sc2ccc(F)cc2F)s1` [P22077] gave a Fractional motility of 3.24.
The same measure, in the same setting: then `c1ccc(CNc2nc(NCc3ccccc3)c3ccccc3n2)cc1` [DBeQ], with 1.19; and `COc1cc(N2CCC(N)CC2)ccc1Nc1ncc(Cl)c(-c2c[nH]c3ccccc23)n1` [AZD3463], with 5.60.

Still in this data set, the particulars now being: schistosomulae, 3h exposure, read at D5, 10 µM.
On to `CC(=O)c1cc([N+](=O)[O-])c(Sc2ccc(F)cc2F)s1` [P22077], for which the Fractional motility was -0.09.
On the same count and under the same terms, the value for HO-3867 was -0.41; that for `c1ccc(CNc2nc(NCc3ccccc3)c3ccccc3n2)cc1` [DBeQ] was -0.88; that for `COc1cc(N2CCC(N)CC2)ccc1Nc1ncc(Cl)c(-c2c[nH]c3ccccc23)n1` [AZD3463] was -0.68.

The same data set, now with this note: schistosomulae, 6h exposure, read at D1, 10 µM.
`CC(=O)c1cc([N+](=O)[O-])c(Sc2ccc(F)cc2F)s1` [P22077] had a Fractional motility of 10.22.
On the same count and under the same terms, then HO-3867, with -0.37.
Same read-out and setting: then `c1ccc(CNc2nc(NCc3ccccc3)c3ccccc3n2)cc1` [DBeQ], with 0.41; and `COc1cc(N2CCC(N)CC2)ccc1Nc1ncc(Cl)c(-c2c[nH]c3ccccc23)n1` [AZD3463], with 2.17.

Staying with this data set, now noted: schistosomulae, 6h exposure, read at D5, 10 µM.
For `CC(=O)c1cc([N+](=O)[O-])c(Sc2ccc(F)cc2F)s1` [P22077], the Fractional motility was -0.30.
Still for that read-out and setting: the value for HO-3867 was -0.0245; that for `c1ccc(CNc2nc(NCc3ccccc3)c3ccccc3n2)cc1` [DBeQ] was -0.13.
Still for that read-out and setting: then `COc1cc(N2CCC(N)CC2)ccc1Nc1ncc(Cl)c(-c2c[nH]c3ccccc23)n1` [AZD3463], with -0.70.

The data set is the same for the next values; noted with them: schistosomulae, secondary screen, 24h exposure, read at D1, 1 µM.
As for `CC(=O)c1cc([N+](=O)[O-])c(Sc2ccc(F)cc2F)s1` [P22077], the Fractional motility is given as -0.36.
On the same count and under the same terms, then `N#CSc1cc(SC#N)c(N)nc1N` [PR-619], with 2.00; and HO-3867, with 1.34.
With `c1ccc(CNc2nc(NCc3ccccc3)c3ccccc3n2)cc1` [DBeQ], the Fractional motility is given as 7.69.
Still for that read-out and setting: then `COc1cc(N2CCC(N)CC2)ccc1Nc1ncc(Cl)c(-c2c[nH]c3ccccc23)n1` [AZD3463], with 0.62.

Staying with this data set, now noted: schistosomulae, secondary screen, 24h exposure, read at D1, 10 µM.
On to `CC(=O)c1cc([N+](=O)[O-])c(Sc2ccc(F)cc2F)s1` [P22077], for which the Fractional motility is given as 2.27.
The same measure, in the same setting: then `N#CSc1cc(SC#N)c(N)nc1N` [PR-619], with 0.27.
Same read-out and setting: the value for HO-3867 was 2.56.
Same read-out and setting: then `c1ccc(CNc2nc(NCc3ccccc3)c3ccccc3n2)cc1` [DBeQ], with 6.82; and `COc1cc(N2CCC(N)CC2)ccc1Nc1ncc(Cl)c(-c2c[nH]c3ccccc23)n1` [AZD3463], with 1.68.

Staying with this data set, now noted: schistosomulae, secondary screen, 24h exposure, read at D5, 1 µM.
As for `CC(=O)c1cc([N+](=O)[O-])c(Sc2ccc(F)cc2F)s1` [P22077], the Fractional motility is listed as -0.61.
Same read-out and setting: the value for `N#CSc1cc(SC#N)c(N)nc1N` [PR-619] was 0.18.
Consider HO-3867, for which the Fractional motility is 1.27.
As to `c1ccc(CNc2nc(NCc3ccccc3)c3ccccc3n2)cc1` [DBeQ], the Fractional motility is reported as -0.29.
Same read-out and setting: then `COc1cc(N2CCC(N)CC2)ccc1Nc1ncc(Cl)c(-c2c[nH]c3ccccc23)n1` [AZD3463], with 0.15.

Staying with this data set, now noted: schistosomulae, secondary screen, 24h exposure, read at D5, 10 µM.
Take `CC(=O)c1cc([N+](=O)[O-])c(Sc2ccc(F)cc2F)s1` [P22077]: the Fractional motility is on record as -0.98.
For the compound `N#CSc1cc(SC#N)c(N)nc1N` [PR-619], the Fractional motility is on record as -0.76.
On the same count and under the same terms, then HO-3867, with -0.58; and `c1ccc(CNc2nc(NCc3ccccc3)c3ccccc3n2)cc1` [DBeQ], with 4.98.
Still for that read-out and setting: then `COc1cc(N2CCC(N)CC2)ccc1Nc1ncc(Cl)c(-c2c[nH]c3ccccc23)n1` [AZD3463], with -0.81.
